This is an account of results in patent US20250223268A1, “4-Methylsulfonylbenzamide Compound, Preparation Method, Herbicidal Composition And Use” (Jiangsu Flag Chemical Industry Co., Ltd., priority 2022, published 2025).

Assay type in all cases: in vivo
In data set [1] the test system is Zea mays. Put plainly: Greenhouse herbicidal activity and crop safety comparison (Test Example 2). In short, it runs like this: (§1)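 Fresh weight inhibition, banded into grades A to E (E <20%), was rated 14-21 days after foliar spraying of 3-6 leaf plants, or 14-30 days after a soil spray applied 24 h post-sowing.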
In data set [2] the test system is Digitaria sanguinalis. Described as above. The method, boiled down:
as §1

In data set [3] the test system is Leptochloa chinensis. Put plainly: Greenhouse herbicidal activity assay, post-emergence. The note with it: Post-emergence test, rate 150 g a.i./hm^2, grade by fresh weight inhibition rate. In short, it runs like this: (§2)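 Weeds were sown in nutrient soil in 7 cm pots and grown in a growth chamber to the 3-6 leaf stage, then foliar-sprayed, air-dried and returned to the chamber. Fresh weight inhibition was scored 14-21 days later in bands from A (≥80% to 100%) to E (<20%).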

Data set [4] relates to Echinochloa crusgalli. Described as above. The note with it: Post-emergence test, rate 150 g a.i./hm^2, grade by fresh weight inhibition rate. In short, it runs like this: as §2
Data set [5] concerns Cyperus iria. The description is as above. The following applies: Post-emergence test, rate 150 g a.i./hm^2, grade by fresh weight inhibition rate. The method, boiled down: as §2
For data set [6], the system named is Digitaria sanguinalis. The data set is described as above. The following applies: Post-emergence test, rate 150 g a.i./hm^2, grade by fresh weight inhibition rate. In short, it runs like this: as §2
Data set [7] relates to Eclipta prostrata. Described as above. The following applies: Post-emergence test, rate 150 g a.i./hm^2, grade by fresh weight inhibition rate. In short, it runs like this: as §2
Data set [8] concerns Echinochloa crusgalli. The data set is described as follows: Greenhouse herbicidal activity and crop safety comparison (Test Example 2). The method, boiled down: as §1
For data set [9], the system named is Oryza sativa subsp. japonica. The description is as above. In short, it runs like this: as §1
Data set [10] concerns Oryza sativa subsp. indica. The description is as above. In short, it runs like this:
as §1

The mark [11] stands for this setting: Digitaria sanguinalis, Rate 75 g/ha, read-out: Digitaria sanguinalis, control efficacy grading (fresh weight inhibition rate).
Setting [12] is: Digitaria sanguinalis, Rate 150 g/ha, read-out: Digitaria sanguinalis, control efficacy grading (fresh weight inhibition rate).
The mark [13] stands for this setting: Echinochloa crus-galli, Rate 75 g/ha, read-out: Echinochloa crusgalli, control efficacy grading (fresh weight inhibition rate).

Usually inhibition stands for the relative decrease from the control value, in per cent.

With `CCC[S+]([O-])c1c(S(C)(=O)=O)ccc(C(=O)Nc2nonc2C)c1Cl` (racemic) [Compound 4-2, 2-chloro-N-(4-methyl-1,2,5-oxadiazol-3-yl)-4-(methylsulfonyl)-3-(propylsulfinyl)benzamide], the “Zea mays, grading of fresh weight inhibition rate (crop safety)” value in [1] (Rate 18.75 g/ha), in [1] (Rate 75 g/ha) and in data set [1] (Rate 150 g/ha) was “E (Fresh weight inhibition rate<20%)” each time. Also, the inhibition at 75 g/ha in [2] (setting [11]) was in the range of 80 to 100%. The inhibition at 150 g/ha in data set [2] (setting [12]) fell in the range of 80 to 100%. In addition, the pest or weed control at 150 g/ha in data set [3] (Dinebra chinensis, read-out: Control efficacy grade, Leptochloa chinensis) was in the range of 80 to 100%; in data set [4] (Echinochloa crus-galli, read-out: Control efficacy grade, Echinochloa crusgalli), 80 to 100%; in [5] (Cyperus iria, read-out: Control efficacy grade, Cyperus iria), 80 to 100%; in data set [6] (Digitaria sanguinalis, read-out: Control efficacy grade, Digitaria sanguinalis), 80 to 100%; in [7] (Eclipta prostrata, read-out: Control efficacy grade, Eclipta prostrata) it was 80 to 100%.

Regarding `Cc1nonc1NC(=O)c1ccc(S(C)(=O)=O)c([S+](C)[O-])c1Cl` (stereo not drawn) [CK6, reference compound], the “Zea mays, grading of fresh weight inhibition rate (crop safety)” value was “E (Fresh weight inhibition rate<20%)” in data set [1] (Rate 18.75 g/ha), “D (Fresh weight inhibition rate≥20% to <40%)” in data set [1] (Rate 75 g/ha) and “D (Fresh weight inhibition rate≥20% to <40%)” in data set [1] (Rate 150 g/ha). In addition, the inhibition at 18.75 g/ha in [2] (Digitaria sanguinalis, Rate 18.75 g/ha, read-out: Digitaria sanguinalis, control efficacy grading (fresh weight inhibition rate)) is less than 20%. Further, the inhibition at 75 g/ha in [2] (setting [11]) was in the range of 40 to 60%. Further, the inhibition at 150 g/ha in data set [2] (setting [12]) fell in the range of 40 to 60%.

As to `Cn1ncnc1NC(=O)c1ccc(S(C)(=O)=O)c(S(=O)(=O)C2CCC2)c1Cl` [Compound 2-41], the “Zea mays, grading of fresh weight inhibition rate (crop safety)” value in data set [1] (Rate 75 g/ha) and in data set [1] (Rate 150 g/ha) was “E (Fresh weight inhibition rate<20%)” in each case. The “Echinochloa crusgalli, control efficacy grading (fresh weight inhibition rate)” value in data set [8] (Rate 75 g/ha) and in data set [8] (Rate 150 g/ha) was “A (Fresh weight inhibition rate≥80% to 100%)” throughout. In addition, the “Oryza sativa subsp. japonica, grading of fresh weight inhibition rate (crop safety)” value in data set [9] (Rate 75 g/ha) and in data set [9] (Rate 150 g/ha) was “E (Fresh weight inhibition rate<20%)” each time. The “Oryza sativa subsp. indica, grading of fresh weight inhibition rate (crop safety)” value in data set [10] (Rate 75 g/ha) and in data set [10] (Rate 150 g/ha) was “E (Fresh weight inhibition rate<20%)” in each case. Also, the “Digitaria sanguinalis, control efficacy grading (fresh weight inhibition rate)” value in data set [2] (Rate 150 g/ha) is on record as “A (Fresh weight inhibition rate≥80% to 100%)”. For the same compound, in [4], the “Control efficacy grade, Echinochloa crusgalli” value is “A (Fresh weight inhibition rate≥80% to 100%)”. Besides, the “Control efficacy grade, Cyperus iria” value in data set [5] is listed as “A (Fresh weight inhibition rate≥80% to 100%)”. For the same compound, the “Control efficacy grade, Digitaria sanguinalis” value in data set [6] is listed as “A (Fresh weight inhibition rate≥80% to 100%)”. Further, in [7], the “Control efficacy grade, Eclipta prostrata” value was “A (Fresh weight inhibition rate≥80% to 100%)”.

Take `CCC[S+]([O-])c1c(S(C)(=O)=O)ccc(C(=O)Nc2nonc2C)c1Cl` (single isomer, unassigned) [Compound 4-3]: the “Zea mays, grading of fresh weight inhibition rate (crop safety)” value in data set [1] (Rate 18.75 g/ha), in data set [1] (Rate 75 g/ha) and in data set [1] (Rate 150 g/ha) was “E (Fresh weight inhibition rate<20%)” throughout. Besides, the “Digitaria sanguinalis, control efficacy grading (fresh weight inhibition rate)” value in data set [2] (Rate 18.75 g/ha), in [2] (Rate 75 g/ha) and in data set [2] (Rate 150 g/ha) was “A (Fresh weight inhibition rate≥80% to 100%)” each time. Moreover, the “Control efficacy grade, Leptochloa chinensis” value in data set [3] is reported as “A (Fresh weight inhibition rate≥80% to 100%)”. Besides, the “Control efficacy grade, Echinochloa crusgalli” value in data set [4] is “A (Fresh weight inhibition rate≥80% to 100%)”. For the same compound, the “Control efficacy grade, Cyperus iria” value in [5] is on record as “A (Fresh weight inhibition rate≥80% to 100%)”. Also, in data set [6], the “Control efficacy grade, Digitaria sanguinalis” value is reported as “A (Fresh weight inhibition rate≥80% to 100%)”. Moreover, the “Control efficacy grade, Eclipta prostrata” value in data set [7] is listed as “A (Fresh weight inhibition rate≥80% to 100%)”.

As for `Cn1ncnc1NC(=O)c1ccc(S(C)(=O)=O)c(S(C)(=O)=O)c1Cl` [CK3, reference compound], the “Zea mays, grading of fresh weight inhibition rate (crop safety)” value is listed as “E (Fresh weight inhibition rate<20%)” in [1] (Rate 75 g/ha) and “D (Fresh weight inhibition rate≥20% to <40%)” in data set [1] (Rate 150 g/ha). Also, the inhibition at 75 g/ha in data set [8] (setting [13]) was 40 to 60%; in data set [2] (setting [11]) it was less than 20%. For the same compound, the inhibition at 150 g/ha was 80 to 100% in data set [8] (Echinochloa crus-galli, Rate 150 g/ha, read-out: Echinochloa crusgalli, control efficacy grading (fresh weight inhibition rate)) and 20 to 40% in [2] (setting [12]). Also, the “Oryza sativa subsp. japonica, grading of fresh weight inhibition rate (crop safety)” value was “D (Fresh weight inhibition rate≥20% to <40%)” in data set [9] (Rate 75 g/ha) and “C (Fresh weight inhibition rate≥40% to <60%)” in [9] (Rate 150 g/ha). In addition, the results for the “Oryza sativa subsp. indica, grading of fresh weight inhibition rate (crop safety)” value in [10] (Rate 75 g/ha) and in [10] (Rate 150 g/ha) were “D (Fresh weight inhibition rate≥20% to <40%)” and “B (Fresh weight inhibition rate≥260% to <80%)”, respectively.

For the compound `CCS(=O)(=O)c1c(S(C)(=O)=O)ccc(C(=O)Nc2ncnn2C)c1Cl` [CK4, reference compound], the “Zea mays, grading of fresh weight inhibition rate (crop safety)” value was “E (Fresh weight inhibition rate<20%)” in data set [1] (Rate 75 g/ha) and “D (Fresh weight inhibition rate≥20% to <40%)” in data set [1] (Rate 150 g/ha). The inhibition at 75 g/ha was in the range of 40 to 60% in [8] (setting [13]) and 20 to 40% in [2] (setting [11]). The “Oryza sativa subsp. japonica, grading of fresh weight inhibition rate (crop safety)” value in data set [9] (Rate 75 g/ha) and in data set [9] (Rate 150 g/ha) was “C (Fresh weight inhibition rate≥40% to <60%)” each time. Also, the “Oryza sativa subsp. indica, grading of fresh weight inhibition rate (crop safety)” value is “C (Fresh weight inhibition rate≥40% to <60%)” in data set [10] (Rate 75 g/ha) and “B (Fresh weight inhibition rate≥260% to <80%)” in data set [10] (Rate 150 g/ha). Further, the inhibition at 150 g/ha in data set [2] (setting [12]) was in the range of 40 to 60%.

Take `CCC[S+]([O-])c1c(S(C)(=O)=O)ccc(C(=O)Nc2nonc2C)c1Cl` (single isomer, unassigned) [Compound 4-4]: the “Zea mays, grading of fresh weight inhibition rate (crop safety)” value in data set [1] (Rate 18.75 g/ha), in [1] (Rate 75 g/ha) and in data set [1] (Rate 150 g/ha) was “E (Fresh weight inhibition rate<20%)” in each case. Further, the “Digitaria sanguinalis, control efficacy grading (fresh weight inhibition rate)” value in data set [2] (Rate 75 g/ha) and in data set [2] (Rate 150 g/ha) was “A (Fresh weight inhibition rate≥80% to 100%)” each time. For the same compound, the “Control efficacy grade, Leptochloa chinensis” value in [3] is “A (Fresh weight inhibition rate≥80% to 100%)”. In addition, in data set [4], the “Control efficacy grade, Echinochloa crusgalli” value was “A (Fresh weight inhibition rate≥80% to 100%)”. The “Control efficacy grade, Cyperus iria” value in [5] was “A (Fresh weight inhibition rate≥80% to 100%)”. Further, the “Control efficacy grade, Digitaria sanguinalis” value in [6] is “A (Fresh weight inhibition rate≥80% to 100%)”. Besides, the “Control efficacy grade, Eclipta prostrata” value in [7] is given as “A (Fresh weight inhibition rate≥80% to 100%)”.
